Test system: Genes belonging to other category
Assay: DNA chip mRNA expression in yeast, genes belonging to other category (Table 9)
Type: cell-based, Saccharomyces cerevisiae S288C
Experimental: Yeast (Saccharomyces cerevisiae S288C (α SUC2mal mel gap2 CUP1)) were incubated at 25° C. on YPD medium (yeast extract 1%, polypepton 2%, glucose 2%). One of toxic chemical substances was added to the cells at logarithmic growth phase, and the cells were further incubated for two hours. Cells were cultured without any chemical substance in the same condition, and were used as control. Concentrations of the chemical substances were defined to inhibit the growth of the yeast but not lead to death.
After completion of the incubation, the culture was centrifuged to collect the cells. To the cells, sodium acetate buffer (50 mM sodium acetate, 10 mM EDTA, 1% SDS) was added, and the mixture was shaken at 65° C. for five minutes, followed by returning to room temperature, and obtaining the supernatant, of which the procedures were repeated two times. To the supernatant, ½ amount of a solution of phenol/chloroform was added, and the mixture was centrifuged to give a supernatant, which was added with an equal amount of chloroform, and the mixture was centrifuged to give a supernatant. To the supernatant, an equal amount of isopropanol containing 0.3 M sodium acetate was added, and the mixture was allowed to stand at room temperature for 30 minutes, after which the mixture was centrifuged to give a sediment of the whole RNAs. Seventy % ethanol was added to the sediment, and the mixture was again centrifuged to give a sediment, which was then dried and dissolved in water. mRNA was isolated from the whole RNAs as followings. In view of the fact that a poly A chain is attached to the 3′ terminus of mRNA, a polynucleotide having a poly T structure which was immobilized on the surface of latex beads was used to trap the mRNA, and then the mRNA was washed and eluted with spine column (Oligotex-dT30<Super>mRNA Purification Kit, Takara). Reverse transcription of the mRNA was conducted with a reverse transcriptase (Super Script II Reverse Transcriptase; catalogue No. 18064-014, GibcoBRL) using fluorescence-labeled nucleotides to give cDNAs that were introduced with Cy3-dUTP or Cy5-dUTP during the reverse transcription.
The labeled cDNAs were dissolved in TE buffer (10mM Tris-HCl/1 mM EDTA, pH8.0), and the solution was dropped on the DNA chip containing the whole genes of yeast (DNA Chip Research Inc. Japan) so that the cDNAs were hybridized on the DNA chip at 65° C. for over 12 hours. The fluoresces intensity of the DNA chip was read with a scanner, and the ratio relative to the fluorescence intensity resulting from the absence of chemical substance was estimated as the following, which is shown in Tables 1 to 9: […]

SMILES: N#Cc1c(Cl)c(Cl)c(Cl)c(C#N)c1Cl [(9), 2,4,5,6-tetrachloro-1,3-benzenedicarbonitrile]
- The level of expressed mRNA in the presence of chemical substance/The level of expressed mRNA in the absence of chemical substance (yeast gene YMR297W): 1.9
- The level of expressed mRNA in the presence of chemical substance/The level of expressed mRNA in the absence of chemical substance (yeast gene YMR314W): 5.9
- The level of expressed mRNA in the presence of chemical substance/The level of expressed mRNA in the absence of chemical substance (yeast gene YNL006W): 4.0
- The level of expressed mRNA in the presence of chemical substance/The level of expressed mRNA in the absence of chemical substance (yeast gene YNL007C): 3.0
- The level of expressed mRNA in the presence of chemical substance/The level of expressed mRNA in the absence of chemical substance (yeast gene YNL036W): 6.6
- The level of expressed mRNA in the presence of chemical substance/The level of expressed mRNA in the absence of chemical substance (yeast gene YNL039W): 2.1
- The level of expressed mRNA in the presence of chemical substance/The level of expressed mRNA in the absence of chemical substance (yeast gene YNL093W): 1.7
- The level of expressed mRNA in the presence of chemical substance/The level of expressed mRNA in the absence of chemical substance (yeast gene YNL147W): 2.1
- The level of expressed mRNA in the presence of chemical substance/The level of expressed mRNA in the absence of chemical substance (yeast gene YNL214W): 1.5
- The level of expressed mRNA in the presence of chemical substance/The level of expressed mRNA in the absence of chemical substance (yeast gene YNL333W): 2.3
- The level of expressed mRNA in the presence of chemical substance/The level of expressed mRNA in the absence of chemical substance (yeast gene YNR010W): 1.7
- The level of expressed mRNA in the presence of chemical substance/The level of expressed mRNA in the absence of chemical substance (yeast gene YNR037C): 1.3
- The level of expressed mRNA in the presence of chemical substance/The level of expressed mRNA in the absence of chemical substance (yeast gene YNR069C): 5.5
- The level of expressed mRNA in the presence of chemical substance/The level of expressed mRNA in the absence of chemical substance (yeast gene YOL013C): 0.8
- The level of expressed mRNA in the presence of chemical substance/The level of expressed mRNA in the absence of chemical substance (yeast gene YOL164W): 4.9
- The level of expressed mRNA in the presence of chemical substance/The level of expressed mRNA in the absence of chemical substance (yeast gene YOR036W): 1.2
- The level of expressed mRNA in the presence of chemical substance/The level of expressed mRNA in the absence of chemical substance (yeast gene YOR058C): 6.4
- The level of expressed mRNA in the presence of chemical substance/The level of expressed mRNA in the absence of chemical substance (yeast gene YOR069W): 1.9
- The level of expressed mRNA in the presence of chemical substance/The level of expressed mRNA in the absence of chemical substance (yeast gene YOR117W): 3.5
- The level of expressed mRNA in the presence of chemical substance/The level of expressed mRNA in the absence of chemical substance (yeast gene YOR124C): 2.0
- The level of expressed mRNA in the presence of chemical substance/The level of expressed mRNA in the absence of chemical substance (yeast gene YOR132W): 2.8
- The level of expressed mRNA in the presence of chemical substance/The level of expressed mRNA in the absence of chemical substance (yeast gene YOR134W): 1.5
- The level of expressed mRNA in the presence of chemical substance/The level of expressed mRNA in the absence of chemical substance (yeast gene YOR149C): 0.4
- The level of expressed mRNA in the presence of chemical substance/The level of expressed mRNA in the absence of chemical substance (yeast gene YOR157C): 5.7
- The level of expressed mRNA in the presence of chemical substance/The level of expressed mRNA in the absence of chemical substance (yeast gene YOR165W): 0.8
- The level of expressed mRNA in the presence of chemical substance/The level of expressed mRNA in the absence of chemical substance (yeast gene YOR181W): 0.6
- The level of expressed mRNA in the presence of chemical substance/The level of expressed mRNA in the absence of chemical substance (yeast gene YOR185C): 1.9
- The level of expressed mRNA in the presence of chemical substance/The level of expressed mRNA in the absence of chemical substance (yeast gene YOR198C): 2.4
- The level of expressed mRNA in the presence of chemical substance/The level of expressed mRNA in the absence of chemical substance (yeast gene YOR256C): 2.7
- The level of expressed mRNA in the presence of chemical substance/The level of expressed mRNA in the absence of chemical substance (yeast gene YOR259C): 2.7
- The level of expressed mRNA in the presence of chemical substance/The level of expressed mRNA in the absence of chemical substance (yeast gene YOR261C): 5.5
- The level of expressed mRNA in the presence of chemical substance/The level of expressed mRNA in the absence of chemical substance (yeast gene YOR285W): 4.0
- The level of expressed mRNA in the presence of chemical substance/The level of expressed mRNA in the absence of chemical substance (yeast gene YOR288C): 0.9
- The level of expressed mRNA in the presence of chemical substance/The level of expressed mRNA in the absence of chemical substance (yeast gene YOR327C): 1.4
- The level of expressed mRNA in the presence of chemical substance/The level of expressed mRNA in the absence of chemical substance (yeast gene YOR355W): 0.1
- The level of expressed mRNA in the presence of chemical substance/The level of expressed mRNA in the absence of chemical substance (yeast gene YOR362C): 4.3
- The level of expressed mRNA in the presence of chemical substance/The level of expressed mRNA in the absence of chemical substance (yeast gene YOR383C): 1.2
- The level of expressed mRNA in the presence of chemical substance/The level of expressed mRNA in the absence of chemical substance (yeast gene YPL001W): 0.7
- The level of expressed mRNA in the presence of chemical substance/The level of expressed mRNA in the absence of chemical substance (yeast gene YPL018W): 1.4
- The level of expressed mRNA in the presence of chemical substance/The level of expressed mRNA in the absence of chemical substance (yeast gene YPL020C): 2.3
- The level of expressed mRNA in the presence of chemical substance/The level of expressed mRNA in the absence of chemical substance (yeast gene YPL089C): 0.4
- The level of expressed mRNA in the presence of chemical substance/The level of expressed mRNA in the absence of chemical substance (yeast gene YPL109C): 1.2
- The level of expressed mRNA in the presence of chemical substance/The level of expressed mRNA in the absence of chemical substance (yeast gene YPL149W): 5.6
- The level of expressed mRNA in the presence of chemical substance/The level of expressed mRNA in the absence of chemical substance (yeast gene YPL154C): 2.8
- The level of expressed mRNA in the presence of chemical substance/The level of expressed mRNA in the absence of chemical substance (yeast gene YPR066W): 2.3
- The level of expressed mRNA in the presence of chemical substance/The level of expressed mRNA in the absence of chemical substance (yeast gene YPR081C): 4.2
- The level of expressed mRNA in the presence of chemical substance/The level of expressed mRNA in the absence of chemical substance (yeast gene YPR086W): 3.0
- The level of expressed mRNA in the presence of chemical substance/The level of expressed mRNA in the absence of chemical substance (yeast gene YPR103W): 5.5
- The level of expressed mRNA in the presence of chemical substance/The level of expressed mRNA in the absence of chemical substance (yeast gene YPR107C): 2.4
- The level of expressed mRNA in the presence of chemical substance/The level of expressed mRNA in the absence of chemical substance (yeast gene YPR108W): 3.7

From US8192962B2, “Processes for detecting toxic substances” (Daikin Industries, Ltd., priority 2001, dated 2012)
